{
  "source": "patent US20180353445A1",
  "about": "“METHODS AND COMPOSITIONS RELATING TO PROTEASOME INHIBITOR RESISTANCE” (Whitehead Institute for Biomedical Research, priority 2017, published 2018)",
  "key": {"HepG2 cells [1]": {"system": "HepG2 cells", "test": "RNA-seq gene expression profiling, PSMD2 knockdown and control cells", "assay_type": "cell-based, human", "details": "control cells", "method": "FIGS. 3A-3E: Inhibition of bortezomib-mediated transcriptional responses in PSMD2 knockdown cells. RNA-seq gene expression profiling was conducted on cells that harbor two different shRNAs targeting PSMD2 (PSMD2-1, PSMD2-2) and on control cells (shLacZ). The effects of reducing PSMD2 levels on gene expression were highly correlated in both basal conditions (Pearson's r=0.99) and following bortezomib treatment (Pearson's r=0.94). […] Enrichment was calculated for the indicated gene sets and is presented as a normalized enrichment score (NES). […]\nGene expression analysis—RNA was extracted from triplicate samples and RNA libraries were prepared for sequencing by NEBNext Ultra RNA Library Prep Kit for Illumina (New England BioLabs, Ipswich, Mass.), including the removal of large and small RNA, synthesis of cDNA, and construction of cDNA libraries. […] Libraries were sequenced using Illumina HiSeq 2500, with paired-end 100 bp reads, Paired-end reads were aligned to UCSC human transcriptome 19 (hg19) using TopHat (Bowtie v2.0.9). Alignment quality and read distribute was assessed via SAMtools (v0.1.19) (Li et al., 2009). […] RNA sequencing data have been deposited in the NCBI Sequence Read Archive under accession number: PRJNA281613, […]"}, "HepG2 cells [2]": {"system": "HepG2 cells", "test": "Cell viability assay (resazurin), HepG2 cells with shRNA knockdown of proteasome subunits vs control", "assay_type": "cell-based, human", "from_the_text": "FIGS. 2A-2F: Reducing expression of 19S subunits increases the levels of active 20S proteasomes and protects cancer cells from proteasome (FIG. 2A) HepG2 cells were infected with 80 shRNAs targeting 20 different subunits of the proteasome and 10 control shRNAs. Infected cells were then exposed to […] bortezomib and cell number was examined 4 days later. The plot represents the average (+/−SEM) of four different hairpins targeting the indicated proteasome subunits and their relative cell number following bortezomib treatment. 19S subunits are depicted with orange bars, the control with a blue bar and 20S subunits with green bars. […] (FIG. 2C) The relative cell number of cells harboring a control shLacZ or each of 4 individual shRNAs targeting shPSMD2 was analyzed 4 days after addition of the indicated concentrations of bortezomib. (FIG. 2D) HepG2 cells stably expressing four different shRNAs targeting the PSMD2 subunit and a control shRNA (lacZ) were analyzed by western blot for the indicated proteins 24 hours with or without bortezomib treatment. […] Proteasome complex levels were detected by immunoblot analysis and 20S proteasome activity by measuring the hydrolysis of Suc-LLVY-AMC by substrate overlay assays. * p<0.05 **p<0.01. […]"}},
  "data": [
    {"compound": "CC(C)C[C@H](NC(=O)[C@H](Cc1ccccc1)NC(=O)c1cnccn1)B(O)O", "note": "[bortezomib]", "values": [
      {"measurement": "transcriptional response", "setting": "HepG2 cells [1]", "value": "sharp increase in stress-response transcripts"},
      {"measurement": "proliferation of control cells", "setting": "HepG2 cells [2]; 12 nM, control HepG2 cells", "value": "completely inhibited"},
      {"measurement": "increase of EC50 values in cell lines with shRNA-reduced PSMD2 vs parental line", "setting": "HepG2 cells [2]; HepG2, four shRNAs targeting PSMD2, 4 days", "value": "three to six-fold"}
    ]}
  ]
}
